Read-outs that look alike come from different tables or passages of the source.
How the values were obtained:
rats = assay: Reversal of the effect of the mGluR2 PAM JNJ-42153605-induced inhibition of scopolamine-induced hyperlocomotion; format: in vivo, rat; conditions: rats, route PO, criterion total distance >1500 cm; for ED50: Rattus norvegicus, read-out: ED50 SCOP JNJ-42153605 (Reversal of the effect of JNJ 42153605 on scopolamine-induced hyperlocomotion)
In short: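 Rats dosed with test compound 60 min pre-recording, challenged with JNJ-42153605 (20 mg/kg, i.v.) at 30 min and scopolamine (0.16 mg/kg, i.v.) just before recording. Total distance travelled over first 30 min video-tracked under 4–8 lux. All-or-none reversal criterion: total distance >1500 cm.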

Wiga rats = assay: Induction of mydriasis (pupil diameter, test 1 and test 2); format: in vivo, rat; conditions: route PO; for ED50: Rattus norvegicus
Description: 3) Induction of Mydriasis
The pupil diameter of Wiga rats was measured with a microscopic micrometer (1 unit=1/24 mm). Criteria for drug-induced effects: pupil diameter >25 units for mydriasis (in controls: 1.9%) 1 h post-administration of the test compound (test 1) or 1, 2 or 3 h post-administration of the test compound (test 2, wherein the maximum pupil diameter over the full 3 h period is reported).

Male Wiga Wistar rats = assay: Reversal of LY-404039-induced decrease of palpebral opening in apomorphine-challenged rats; format: in vivo, rat; conditions: rats, route PO (route cell empty for Co. 88 and 84); for ED50: Rattus norvegicus, read-out: ED50 APO LY-404039 (Reversal of LY-404039-induced decrease of palpebral opening in apomorphine challenged rats)
Description: 1) Reversal of LY-404039-Induced Decrease of Palpebral Opening in Apomorphine-Challenged Rats.
Male Wiga Wistar rats (Crl:WI; Charles River Germany; 220±40 g) were housed under standard laboratory conditions (21±2° C.; 50-65% relative humidity; light-dark cycle set at 12 h; lights on at 6.00 h) and fasted overnight prior to the start of the experiments (tap water remained available ad libitum). During the test period, they were housed in individual cages. Palpebral opening was scored every 5 min over the first hour after injection of apomorphine (1.0 mg/kg, i.v.) in animals either pretreated or not pretreated with LY-404039 (2.5 mg/kg, s.c.) at 1 h prior to the apomorphine injection. The animals were also pretreated with test compound or solvent at a predefined interval before apomorphine challenge. The score system was: (5) exophthalmos, (4) wide open, (3) open for three-quarters, (2) half open, (1) open for one-quarter, (0) closed. The scores for palpebral opening were cumulated over the 60-min observation period.

human mGlu2 receptor = human mGlu2 receptor (Homo sapiens, UniProt Q14416); assay: [35S]GTPγS binding assay, mGluR2 negative allosteric modulation (membranes from CHO cells transfected with human mGlu2 receptor, glutamate ~EC80 60 μM); conditions: for IC50: GTPγS - hmGluR2 anGT pIC50, membranes with human mGlu2 receptor; for Emax: read-out: GTPγS - hmGluR2 anGT Emax, relative maximal effect: maximal % inhibition relative to the control glutamate response;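 on all read-outs here: membranes preincubated 30 min at 30 °C with compound plus glutamate, then [35S]GTPγS (0.1 nM) incorporation measured over another 30 min at 30 °C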
Sequence of human mGlu2 receptor (Q14416 19-872): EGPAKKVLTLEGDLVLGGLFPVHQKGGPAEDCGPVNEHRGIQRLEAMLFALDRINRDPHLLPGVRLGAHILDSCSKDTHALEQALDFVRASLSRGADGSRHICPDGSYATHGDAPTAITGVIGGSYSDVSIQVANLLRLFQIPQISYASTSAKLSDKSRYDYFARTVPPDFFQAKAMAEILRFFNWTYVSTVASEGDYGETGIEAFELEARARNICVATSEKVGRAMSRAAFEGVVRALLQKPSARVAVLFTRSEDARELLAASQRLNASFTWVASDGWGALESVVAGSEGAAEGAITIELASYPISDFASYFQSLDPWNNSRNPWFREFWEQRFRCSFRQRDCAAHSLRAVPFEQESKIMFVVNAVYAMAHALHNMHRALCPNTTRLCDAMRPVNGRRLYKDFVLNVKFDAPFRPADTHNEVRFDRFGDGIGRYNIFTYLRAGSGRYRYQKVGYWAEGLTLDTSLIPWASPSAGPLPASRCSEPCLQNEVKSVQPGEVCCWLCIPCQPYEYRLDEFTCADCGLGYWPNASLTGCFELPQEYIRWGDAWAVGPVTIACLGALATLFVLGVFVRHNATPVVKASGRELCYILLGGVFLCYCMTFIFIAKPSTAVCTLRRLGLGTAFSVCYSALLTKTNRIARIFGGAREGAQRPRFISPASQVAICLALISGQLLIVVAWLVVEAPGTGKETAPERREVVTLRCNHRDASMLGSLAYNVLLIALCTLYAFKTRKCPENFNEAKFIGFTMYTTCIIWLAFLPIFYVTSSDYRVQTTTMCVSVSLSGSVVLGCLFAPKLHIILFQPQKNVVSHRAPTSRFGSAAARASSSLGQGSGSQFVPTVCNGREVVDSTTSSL
Description: The [^35S]GTPγS binding assay is a functional membrane-based assay used to study G-protein coupled receptor (GPCR) function whereby incorporation of a non-hydrolysable form of GTP, [^35S]GTPγS (guanosine 5′-triphosphate, labelled with gamma-emitting ^35S), is measured. […] Here we describe the use of the [^35S]GTPγS binding assay using membranes from cells transfected with the human mGlu2 receptor and adapted from Schaffhauser et al. (Molecular Pharmacology, 2003, 4:798-810) for the detection of the negative allosteric modulation (NAM) properties of the compounds of this invention.
CHO-cells were cultured to pre-confluence and stimulated with 5 mM butyrate for 24 h. Cells were then collected by scraping in PBS and cell suspension was centrifuged (10 min at 4000 RPM in benchtop centrifuge). Supernatant was discarded and pellet gently resuspended in 50 mM Tris-HCl, pH 7.4 by mixing with an Ultra Turrax homogenizer. The suspension was centrifuged at 12,400 RPM (Sorvall F14S-6x250Y) for 10 minutes and the supernatant discarded. The pellet was homogenized in 5 mM Tris-HCl, pH 7.4 using an Ultra Turrax homogenizer and centrifuged again (13,000 RPM, 20 min, 4° C.). The final pellet was resuspended in 50 mM Tris-HCl, pH 7.4 and stored at −80° C. in appropriate aliquots before use. Protein concentration was determined by the Bradford method (Bio-Rad, USA) with bovine serum albumin as standard.
Measurement of mGluR2 negative allosteric modulatory activity of test compounds was performed as follows. Test compounds and glutamate were diluted in assay buffer containing 10 mM HEPES acid, 10 mM HEPES salt, pH 7.4, 100 mM NaCl, 3 mM MgCl2 and 10 μM GDP. Human mGlu2 receptor-containing membranes were thawed on ice and diluted in assay buffer supplemented with 18 μg/ml saponin. Membranes were pre-incubated with compound together with a predefined (˜EC80) concentration of glutamate (60 μM) for 30 min at 30° C. After addition of [^35S]GTPγS (f.c. 0.1 nM), assay mixtures were shaken briefly and further incubated to allow [^35S]GTPγS incorporation on activation (30 minutes, 30° C.). Final assay mixtures contained 7 μg of membrane protein in 10 mM HEPES acid, 10 mM HEPES salt, pH 7.4, 100 mM NaCl, 3 mM MgCl2, 10 μM GDP and 10 μg/ml saponin. Total reaction volume was 200 μl. Reactions were terminated by rapid filtration through Unifilter-96 GF/B plates (Perkin Elmer, Massachusetts, USA) using a 96-well filtermate universal harvester. Filters were washed 6 times with ice-cold 10 mM NaH2PO4/10 mM Na2HPO4, pH 7.4. Filters were then air-dried, and 30 μl of liquid scintillation cocktail (Microscint-O) was added to each well. Membrane-bound radioactivity was counted in a Topcount.
Data were calculated as % of the control glutamate response, defined as the response that is generated upon addition of an EC80-equivalent concentration of glutamate.

[1] = pupil diameter >25 units, maximum over 1, 2 or 3 h post-administration, read-out: ED50 MYD Test 2 (Induction of mydriasis)
[2] = glutamate ~EC80 (60 μM), pIC50 = -log IC50 (M)

| SMILES | ED50 (rats) [mg/kg] | ED50 (Wiga rats; [1]) [mg/kg] | ED50 (Male Wiga Wistar rats) [mg/kg] | IC50 (human mGlu2 receptor; [2]) [M] | Emax (human mGlu2 receptor) [%] | melting point [°C] | ED50 (Wiga rats; pupil diameter >25 units 1 h post-administration, read-out: ED50 MYD Test 1 (Induction of mydriasis)) [mg/kg] | ED50 SCOP JNJ-42153605 (Reversal of the effect of JNJ 42153605 on scopolamine-induced hyperlocomotion) (rats) [mg/kg] | ED50 MYD Test 2 (Induction of mydriasis) (Wiga rats; pupil diameter >25 units, maximum over 1, 2 or 3 h post-administration) [mg/kg] | ED50 APO LY-404039 (Reversal of LY-404039-induced decrease of palpebral opening in apomorphine challenged rats) (Male Wiga Wistar rats) [mg/kg] | GTPγS - hmGluR2 anGT pIC50 (human mGlu2 receptor; membranes with human mGlu2 receptor, glutamate ~EC80 (60 μM), pIC50 = -log IC50 (M)) | GTPγS - hmGluR2 anGT Emax (human mGlu2 receptor; relative maximal effect: maximal % inhibition relative to the control glutamate response) [%] |
| --- | --- | --- | --- | --- | --- | --- | --- | --- | --- | --- | --- | --- |
| C[C@H]1CN(c2ccc(C(F)(F)F)cc2)C(=O)c2c(C(=O)Nc3cccnc3)cnn21 [compound 1, (7S)-7-methyl-4-oxo-N-(3-pyridyl)-5-[4-(trifluoromethyl)phenyl]-6,7-dihydropyrazolo[1,5-a]pyrazine-3-carboxamide] | 0.2 | > 40 | 0.39 | 1.91e-09 | 111 | 167.35 |  |  |  |  |  |  |
| Cc1cc(NC(=O)c2cnn3c2C(=O)N(c2ccc(C(F)(F)F)cc2)C[C@@H]3C)ccn1 [compound 5] | 1.27 |  | 0.32 | 3.02e-09 | 105 | 215 | > 10 |  |  |  |  |  |
| C[C@H]1CN(c2ccc(C(F)(F)F)cc2)C(=O)c2c(C(=O)Nc3ccccn3)cnn21 [compound 9] | 0.32 | > 10 | > 2.5 | 1.12e-08 | 103 | 246.7 |  |  |  |  |  |  |
| Cc1cc(NC(=O)c2cnn3c2C(=O)N(c2ccc(Cl)c(Cl)c2)C[C@@H]3C)cc(C)n1 [compound 118] |  |  |  |  |  |  |  | >0.63 | 1.3 | >0.63 | 8.8 | 105 |

Reference: patent US20200121677A1, “SUBSTITUTED 6,7-DIHYDROPYRAZOLO[1,5-a]PYRAZINES AS NEGATIVE ALLOSTERIC MODULATORS OF MGLUR2 RECEPTORS” (Janssen Pharmaceutica NV, priority 2014, published 2020)
